# Assay results as given in patent US9169254B2, “Spiroimidazolone derivative” (Chugai Seiyaku Kabushiki Kaisha, priority 2009, dated 2015).
# Target: T1, human PTH1 receptor (Homo sapiens, UniProt Q03431)
# T1 sequence (Q03431 27-593): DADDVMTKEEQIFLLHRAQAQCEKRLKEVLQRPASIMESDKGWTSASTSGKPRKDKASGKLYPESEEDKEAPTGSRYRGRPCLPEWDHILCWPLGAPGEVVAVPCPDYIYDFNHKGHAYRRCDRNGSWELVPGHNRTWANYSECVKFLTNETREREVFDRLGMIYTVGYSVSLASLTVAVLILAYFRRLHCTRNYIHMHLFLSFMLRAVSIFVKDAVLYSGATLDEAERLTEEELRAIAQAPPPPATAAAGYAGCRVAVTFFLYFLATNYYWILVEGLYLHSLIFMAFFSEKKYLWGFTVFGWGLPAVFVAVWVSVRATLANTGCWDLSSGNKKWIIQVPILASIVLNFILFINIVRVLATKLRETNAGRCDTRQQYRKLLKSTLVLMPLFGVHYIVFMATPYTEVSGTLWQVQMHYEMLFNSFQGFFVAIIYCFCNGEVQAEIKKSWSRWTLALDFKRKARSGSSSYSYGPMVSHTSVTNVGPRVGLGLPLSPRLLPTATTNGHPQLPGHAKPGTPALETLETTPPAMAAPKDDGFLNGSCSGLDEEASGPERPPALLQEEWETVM
# Assay: In vitro cAMP signal activity in HKRK-B7 cells (LLC-PK1 cells overexpressing the human PTH1 receptor)
# Type: cell-based
# Settings: HKRK-B7 cells; compound at 1×10^−3 M; cAMP produced as percentage of that produced by hPTH(1-34) at 100 nM
row,SMILES,cAMP production activity (%)
1,"Cc1cc(C(=O)N(C)N(C)C)cc(C)c1/C=C/S(=O)(=O)N1CCC2(CC1)N=C(C1CCC(CCC(F)(F)F)CC1)NC2=O (stereo not drawn) [Compound 629, 3,5-Dimethyl-4-((E)-2-{4-oxo-2-[4-(3,3,3-trifluoro-propyl)-cyclohexyl]-1,3,8-triaza-spiro[4.5]dec-1-ene-8-sulfonyl}-vinyl)-benzoic acid trimethylhydrazide]",87
2,"COc1cccc(C(=O)N2CCCC(C3=NC4(CCN(S(=O)(=O)c5cccc(Cl)c5)CC4)C(=O)N3)C2)c1 (stereo not drawn) [Compound 426, 8-(3-chloro-benzenesulfonyl)-2-[1-(3-methoxy-benzoyl)-piperidin-3-yl]-1,3,8-triaza-spiro[4.5]dec-1-en-4-one]",16
3,"Cc1cc(N(C)C(N)=O)cc(C)c1CCS(=O)(=O)N1CCC2(CC1)N=C(CCCCCCCCCCCNC(=O)OC(C)(C)C)NC2=O [Compound 1360, [11-(8-{2-[2,6-dimethyl-4-(1-methyl-ureido)-phenyl]-ethanesulfonyl}-4-oxo-1,3,8-triaza-spiro[4.5]dec-1-en-2-yl)-undecyl]-carbamic acid tert-butyl ester]",121
4,"O=C1NC(C2CCCCC2)=NC12CCN(S(=O)(=O)c1cccc(Cl)c1)C2 (stereo not drawn) [Compound 72, 7-(3-chloro-benzenesulfonyl)-2-cyclohexyl-1,3,7-triaza-spiro[4.4]non-1-en-4-one]",1.5
5,"Cc1cc(C(=O)N2CCN(C)CC2)ccc1/C=C/S(=O)(=O)N1CCC2(CC1)N=C(c1cccc(OC(F)(F)F)c1)NC2=O [Compound 527, 8-{(E)-2-[2-methyl-4-(4-methyl-piperazine-1-carbonyl)-phenyl]-ethenesulfonyl}-2-(3-trifluoromethoxy-phenyl)-1,3,8-triaza-spiro[4.5]dec-1-en-4-one]",93
6,"Cc1cc(N(C)C(N)=O)cc(C)c1CCS(=O)(=O)N1CCC2(CC1)N=C(C1C[C@@H](C)[C@@H](C)C1)NC2=O (stereo partly drawn) [Compound 1051, 1-(4-{2-[2-(cis-3,4-dimethyl-cyclopentyl)-4-oxo-1,3,8-triaza-spiro[4.5]dec-1-ene-8-sulfonyl]-ethyl}-3,5-dimethyl-phenyl)-1-methyl-urea]",85
7,"Cc1cc(N(C)C(N)=O)cc(C)c1CCS(=O)(=O)N1CCC2(CC1)N=C(c1ccc(C(C)(C)C)cc1)NC2=O [Compound 1030, 1-(4-{2-[2-(4-tert-butyl-phenyl)-4-oxo-1,3,8-triaza-spiro[4.5]dec-1-ene-8-sulfonyl]-ethyl}-3,5-dimethyl-phenyl)-1-methyl-urea]",115
8,"Cc1cc(C2=NC3(CCN(S(=O)(=O)/C=C/c4c(C)cc(C(=O)N5CCC(C)(O)CC5)cc4C)CC3)C(=O)N2)ccc1C(F)(F)F [Compound 1193, 8-{(E)-2-[4-(4-hydroxy-4-methyl-piperidine-1-carbonyl)-2,6-dimethyl-phenyl]-ethenesulfonyl}-2-(3-methyl-4-trifluoromethyl-phenyl)-1,3,8-triaza-spiro[4.5]dec-1-en-4-one]",86
9,"CCCCCCCCCC1=NC2(CCN(S(=O)(=O)/C=C/c3ccc(N4C(=O)CNC4=O)cc3C(F)(F)F)CC2)C(=O)N1 [Compound 537, 3-{4-[(E)-2-(2-nonyl-4-oxo-1,3,8-triaza-spiro[4.5]dec-1-ene-8-sulfonyl)-vinyl]-3-trifluoromethyl-phenyl}-imidazolidine-2,4-dione]",3.9
10,"CCCCC1CCC(C2=NC3(CCN(S(=O)(=O)CCc4ccc(NC(C)=O)cc4C)CC3)C(=O)N2)CC1 (stereo not drawn) [Compound 905, N-(4-{2-[2-(4-butyl-cyclohexyl)-4-oxo-1,3,8-triaza-spiro[4.5]dec-1-ene-8-sulfonyl]-ethyl}-3-methyl-phenyl)-acetamide]",75
11,"Cc1cc(C(=O)N2CCC[C@H]2CO)ccc1CCS(=O)(=O)N1CCC2(CC1)N=C(c1cccc(C(F)(F)F)c1)NC2=O [Compound 356, 8-{2-[4-((S)-2-hydroxymethyl-pyrrolidine-1-carbonyl)-2-methyl-phenyl]-ethanesulfonyl}-2-(3-trifluoromethyl-phenyl)-1,3,8-triaza-spiro[4.5]dec-1-en-4-one]",78
12,"Cc1cc(N(C)C(N)=O)cc(C)c1CC[S@TB4](=O)(=O)N1CCC2(CC1)N=C(CCC(F)(F)CCCCCC(F)(F)F)NC2=O [Compound 1147, 1-(3,5-dimethyl-4-{2-[4-oxo-2-(3,3,9,9,9-pentafluoro-nonyl)-1,3,8-triaza-spiro[4.5]dec-1-ene-8-sulfonyl]-ethyl}-phenyl)-1-methyl-urea]",112
13,"[2H]C([2H])([2H])C([2H])([2H])Oc1ccc(C2=NC3(CCN(S(=O)(=O)/C=C/c4c(C)cc(C(=O)N5CCC(O)(CF)CC5)cc4C)CC3)C(=O)N2)cc1C(F)(F)F [Compound 1253, 2-(4-[1,1,2,2,2-^2H5]ethoxy-3-trifluoromethyl-phenyl)-8-{(E)-2-[4-(4-fluoromethyl-4-hydroxy-piperidine-1-carbonyl)-2,6-dimethyl-phenyl]-ethenesulfonyl}-1,3,8-triaza-spiro[4.5]dec-1-en-4-one]",81
14,"CC1CCC(C2=NC3(CN(S(=O)(=O)CCc4cccc5ccccc45)C3)C(=O)N2)CC1 (stereo not drawn) [Compound 1104, 6-(4-Methyl-cyclohexyl)-2-(2-naphthalen-1-yl-ethanesulfonyl)-2,5,7-triaza-spiro[3.4]oct-5-en-8-one]",16
15,"Cc1cc(NS(C)(=O)=O)cc(C)c1/C=C/S(=O)(=O)N1CCC2(CC1)N=C(c1cccc(OC(F)(F)F)c1)NC2=O [Compound 229, N-(3,5-dimethyl-4-{(E)-2-[4-oxo-2-(3-trifluoromethoxy-phenyl)-1,3,8-triaza-spiro[4.5]dec-1-ene-8-sulfonyl]-vinyl}-phenyl)-methanesulfonamide]",68
16,"Cc1cc(N2C(=O)NC(COC(C)(C)C)C2=O)cc(C)c1/C=C/S(=O)(=O)N1CCC2(CC1)N=C([C@H]1CC[C@H](C)CC1)NC2=O (stereo partly drawn) [Compound 589, 5-tert-butoxymethyl-3-(3,5-dimethyl-4-{(E)-2-[2-(4-methyl-cyclohexyl)-4-oxo-1,3,8-triaza-spiro[4.5]dec-1-ene-8-sulfonyl]-vinyl}-phenyl)-imidazolidine-2,4-dione]",22
17,"Cc1cc(N2C(=O)CNC2=O)ccc1CCS(=O)(=O)N1CCC2(CC1)N=C(C1CCC(CCCC(F)(F)F)CC1)NC2=O (stereo not drawn) [Compound 944, 3-[3-methyl-4-(2-{4-oxo-2-[4-(4,4,4-trifluoro-butyl)-cyclohexyl]-1,3,8-triaza-spiro[4.5]dec-1-ene-8-sulfonyl}-ethyl)-phenyl]-imidazolidine-2,4-dione]",71
18,"O=C1NC(CCC2CCCCC2)=NC12CCN(S(=O)(=O)c1cccc(Cl)c1)CC2 [Compound 30, 8-(3-chloro-benzenesulfonyl)-2-(2-cyclohexyl-ethyl)-1,3,8-triaza-spiro[4.5]dec-1-en-4-one]",26
19,"Cc1cc(CN2C(=O)CCC2=O)cc(C)c1/C=C/S(=O)(=O)N1CCC2(CC1)N=C(C1CCC(C)CC1)NC2=O (stereo not drawn) [Compound 521, 1-(3,5-dimethyl-4-{(E)-2-[2-(4-methyl-cyclohexyl)-4-oxo-1,3,8-triaza-spiro[4.5]dec-1-ene-8-sulfonyl]-vinyl}-benzyl)-pyrrolidine-2,5-dione]",55
20,"CC[C@H]1CC[C@H](C2=NC3(CCN(S(=O)(=O)CCc4ccc(N5CC(=O)NC5=O)cc4C)CC3)C(=O)N2)CC1 [Compound 878, 1-(4-{2-[2-(4-ethyl-cyclohexyl)-4-oxo-1,3,8-triaza-spiro[4.5]dec-1-ene-8-sulfonyl]-ethyl}-3-methyl-phenyl)-imidazolidine-2,4-dione]",25
21,"Cc1ccccc1C(=O)CS(=O)(=O)N1CCC2(CC1)N=C(C1CCCCC1)NC2=O [Compound 1375, 2-Cyclohexyl-8-(2-oxo-2-o-tolyl-ethanesulfonyl)-1,3,8-triaza-spiro[4.5]dec-1-en-4-one]",23
22,"CCC1CCC(C2=NC3(CCN(S(=O)(=O)CCc4ccc(NC(C)=O)c(Cl)c4C)CC3)C(=O)N2)CC1 (stereo not drawn) [Compound 954, N-(2-chloro-4-{2-[2-(4-ethyl-cyclohexyl)-4-oxo-1,3,8-triaza-spiro[4.5]dec-1-ene-8-sulfonyl]-ethyl}-3-methyl-phenyl)-acetamide]",81
23,"Cc1cc(C(=O)N2CCC(C)(O)CC2)cc(C)c1/C=C/S(=O)(=O)N1CCC2(CC1)N=C(c1ccc(OC(F)(F)F)cc1)NC2=O [Compound 1198, 8-{(E)-2-[4-(4-hydroxy-4-methyl-piperidine-1-carbonyl)-2,6-dimethyl-phenyl]-ethenesulfonyl}-2-(4-trifluoromethoxy-phenyl)-1,3,8-triaza-spiro[4.5]dec-1-en-4-one]",88
24,"COc1cccc(/C=C/S(=O)(=O)N2CCC3(CC2)N=C([C@H]2CC[C@H](C)CC2)NC3=O)c1C [Compound 585, 8-[(E)-2-(3-methoxy-2-methyl-phenyl)-ethenesulfonyl]-2-(4-methyl-cyclohexyl)-1,3,8-triaza-spiro[4.5]dec-1-en-4-one]",39
